Assay results: the supplement of paper PMC10307832

Columns and labels:
Experiment in all cases: relative viability (nuclei count vs DMSO), 5 days (fraction); higher = more cells survive
[1] = compound: COc1cc2ncn(-c3cc(OCc4ccccc4C(F)(F)F)c(C(N)=O)s3)c2cc1OC
Outline: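 A plate was accepted only when its control CV was below 25% and the cells had doubled at least once. Viability is defined from nuclear counts as treated wells divided by vehicle wells, with the median taken across plates. That median covers lung cancer cell lines grown in 1536-well plates, dosed by pinning at five √10-spaced library-drug concentrations, and counted in MetaXpress from 4× Hoechst images after 5 days.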

[2] = compound: COc1cc2ncn(-c3cc(OCc4ccccc4C(F)(F)F)c(C(N)=O)s3)c2cc1OC + CC1(C)CCC(c2ccc(Cl)cc2)=C(CN2CCN(c3ccc(C(=O)NS(=O)(=O)c4ccc(N[C@H](CCN5CCOCC5)CSc5ccccc5)c(S(=O)(=O)C(F)(F)F)c4)cc3)CC2)C1 [Navitoclax] (partner 0.5 µM)
Outline: (§1)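 Values are medians from duplicate plates. Each reflects relative viability, defined as the nuclei count of treated wells over that of vehicle wells. Lung cancer cell lines in 1536-well plates were pin-tool dosed one day after seeding with one drug alone or with a fixed anchor-drug dose plus five library-drug doses (not always all listed) in √10 steps, then fixed, stained and imaged at 4× after 5 days.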

[3] = compound: COc1cc2ncn(-c3cc(OCc4ccccc4C(F)(F)F)c(C(N)=O)s3)c2cc1OC + Cc1cc(Nc2cc(N3CCN(C)CC3)nc(Sc3ccc(NC(=O)C4CC4)cc3)n2)n[nH]1 [Tozasertib] (partner 0.1 µM)
Outline: as §1

[4] = compound: COc1cc2ncn(-c3cc(OCc4ccccc4C(F)(F)F)c(C(N)=O)s3)c2cc1OC + N=C(N)NC(=N)NCCc1ccccc1 [Phenformin] (partner 250 µM)
Outline: as §1

Cell Line | relative viability ([1]; 0.05 µM) | relative viability ([1]; 0.1581 µM) | relative viability ([1]; 0.5 µM) | relative viability ([1]; 1.581 µM) | relative viability ([1]; 5 µM) | relative viability ([2]; first compound 0.05 µM) | relative viability ([2]; first compound 0.1581 µM) | relative viability ([2]; first compound 0.5 µM) | relative viability ([2]; first compound 1.581 µM) | relative viability ([2]; first compound 5 µM) | relative viability ([3]; first compound 0.05 µM) | relative viability ([3]; first compound 0.1581 µM) | relative viability ([3]; first compound 0.5 µM) | relative viability ([3]; first compound 1.581 µM) | relative viability ([3]; first compound 5 µM) | relative viability ([4]; first compound 0.05 µM) | relative viability ([4]; first compound 0.1581 µM) | relative viability ([4]; first compound 0.5 µM) | relative viability ([4]; first compound 1.581 µM) | relative viability ([4]; first compound 5 µM)
NCI-H520 | 0.946 | 0.975 | 0.649 | 0.212 | 0.198 | 1.04 | 1.18 | 0.454 | 0.201 | 0.162 | 0.466 | 0.421 | 0.44 | 0.309 | 0.384 | 0.598 | 0.642 | 0.269 | 0.266 | 0.211
NCI-H596 | 0.946 | 1.04 | 0.756 | 0.406 | 0.284 | 0.782 | 0.869 | 0.58 | 0.262 | 0.16 | 0.867 | 0.843 | 0.705 | 0.383 | 0.359 | 0.81 | 0.811 | 0.466 | 0.397 | 0.275
NCI-H647 | 0.956 | 0.881 | 0.432 | 0.0899 | 0.0672 | 1.17 | 1.08 | 0.245 | 0.0619 | 0.0475 | 0.0011 | 0.324 | 0.218 | 0.125 | 0.104 | 0.537 | 0.509 | 0.101 | 0.0685 | 0.069
NCI-H727 | 0.991 | 0.752 | 0.687 | 0.395 | 0.417 | 0.457 | 0.618 | 0.464 | 0.166 | 0.185 | 0.639 | 0.565 | 0.659 | 0.445 | 0.42 | 0.652 | 0.432 | 0.372 | 0.363 | 0.399
NCI-H838 | 0.971 | 1.03 | 0.764 | 0.176 | 0.153 | 1.2 | 1.23 | 0.733 | 0.15 | 0.135 | 0.245 | 0.258 | 0.189 | 0.25 | 0.204 | 0.72 | 0.61 | 0.324 | 0.139 | 0.0964
NCI-H1355 | 0.974 | 0.957 | 0.534 | 0.197 | 0.185 | 1.04 | 0.914 | 0.536 | 0.177 | 0.136 | 0.515 | 0.635 | 0.302 | 0.202 | 0.135 | 0.453 | 0.434 | 0.358 | 0.17 | 0.161
NCI-H1395 | 0.964 | 0.925 | 0.68 | 0.4 | 0.314 | 1.17 | 1.17 | 0.611 | 0.447 | 0.384 | 0.774 | 0.898 | 0.636 | 0.36 | 0.343 | 0.459 | 0.438 | 0.386 | 0.335 | 0.295
NCI-H1437 | 1.02 | 0.898 | 0.507 | 0.21 | 0.18 | 1.13 | 1.07 | 0.151 | 0.13 | 0.119 | 0.457 | 0.456 | 0.377 | 0.354 | 0.251 | 0.352 | 0.223 | 0.117 | 0.123 | 0.12
